From patent US20080234230A1, “Pharmaceutical Composition for Regulation of Pancreatic Juice Secretion Comprising a LPA Receptor Modulator” (ONO PHARMACEUTICAL CO., LTD., priority 2001, published 2008)
Where no end group is shown, it is not given here. The star is where a group is joined. SO3H = O=S(=O)(O)*

How the values were obtained:
[1] = test system: pancreatic juice secretion; test: Determination of the amount of pancreatic juice secreted in rats (Example 1); assay type: in vivo, rat
Procedure: Male rats (8 to 9 week-old) fasting from the morning of the previous day were anesthetized by subcutaneous application of urethane (1.2 g/5 ml/kg) and polyethylene tubes were inserted into the arteria carotis communis and the femoral vein. The abdomen was cut open along the median line and the gastric pylorus was ligated. Then, a polyethylene tube was inserted into the bile duct at the hepatic portal portion, through which the tip of the tube was inserted into the pore opened in the duodenum intestine in order to return bile to the duodenum intestine. The origin of the hepatoapancreatic tube from the duodenum intestine was cut open, into which a tube was inserted in the same way as in the bile duct and led outside the body. Pure pancreatic juice was collected from the tube.
The drug was continuously administered through the femoral vein with saline. On the other hand, a saline containing 18:3-LPA, 18:3-LPC or 0.5% bovine serum albumin (Sigma, A-0281) as control (vehicle) was infused (1 ml/h) through the cervical vein, and pancreatic juice was collected for 1 hour.
The volume of the collected pancreatic juice was measured. In this connection, saline was infused through the cervical vein and the femoral vein 1 hour before administration of the drug, during which time the amount of pancreatic juice secreted was measured in order to ascertain that there was no considerable difference between individual animals in the pre-value to the pancreatic juice secretion in the individual animals.

[2] = test system: lipase secretion; test: Determination of the amount of lipase secreted (Example 3); assay type: in vivo, rat; conditions: rats
Procedure: The pancreatic juice collected in Example 1 was diluted with saline at an appropriate dilution rate and the lipase activity was measured with a reagent contained in Liquitech Lipase Color kit (Roche Diagnostics). Then, 100 μl of a kit R-1 solution was added to 10 μl of a lipase standard solution (Worthington Biochemical; prepared to 1 U/L to 1,000 U/L with saline) or the collected diluted pancreatic juice, and the mixture was incubated at 37° C. for 5 minutes. Then, 60 μl of a kit R-2 solution was added and the variation (Vmax) of optical density (OD) at 570-700 nm was monitored at 37° C. for 3 minutes (SPECTRAMAX 250). The lipase activity of the pancreatic juice was calculated from a lipase standard curve to evaluate the effect of the subject substance by means of the secreted amount of the enzyme (U/h) obtained by the enzyme activity (concentration)(U/L) multiplied by the amount of pancreatic juice collected (L/h).

[3] = test system: pancreatic juice secretion; test: Effect of LPA receptor or EDG-2 agonist on pancreatic juice secretion in rats (Example 6); assay type: in vivo; conditions: rat, intravenous infusion through the cervical vein
Procedure: Using an LPA receptor or EDG-2 agonist, the effect of LPA on the pancreatic juice secretion was examined. An LPA receptor agonist 18:3-LPA was intravenously infused to a rat through the cervical vein, and the amount of pancreatic juice secreted was measured. In a group to which 18:3-LPA was administered, the pancreatic juice secretion was inhibited in rats.

[4] = test system: cholecystokinin-induced pancreatic juice secretion; test: Pancreatic juice secreted in rats by stimulation with cholecystokinin (CCK-8) (Example 4); assay type: in vivo, rat; conditions: CCK-8 0.12 μg/kg/h
Procedure: The pancreatic juice secreted in rats was collected in the same manner as described in Example 1. In order to ascertain the effect of LPA on excessive pancreatic juice secretion by CCK, an experiment was conducted according to a protocol as shown in Table 2. As CCK, CCK-8 (Sigma No. C-2175) was used.
Saline was infused through the cervical vein and the femoral vein 1 hour before administration of the drug, during which time the amount of pancreatic juice secreted was measured in order to ascertain that there was no considerable difference between individual animals in the pre-value to the pancreatic juice secretion in the individual animals. After 1 hour infusion of saline, to the 18:3-LPA group and the 18:3-LPC group, were infused 3 mg/kg/h of 18:3-LPA and 10 mg/kg/h of 18:3-LPC, respectively, through the femoral vein. After lapse of 1 hour, CCK-8 was intravenously infused for stimulation through the cervical vein in order to examine the effect of LPA on the excessive pancreatic juice secretion. To the control group (vehicle) with no stimuli by CCK-8, 0.5% BSA in saline was administered through the cervical vein. On the other hand, saline was infused to the LPA control group (vehicle) through the femoral vein. In other groups, CCK-8 was administered through the cervical vein at a rate of 0.12 μg/kg/h and 1 ml/h. In the 18:3-LPA group and the 18:3-LPC group, 3 mg/kg/h of 18:3-LPA and 10 mg/kg/h of 18:3-LPC, respectively, were infused through the femoral vein. In the control group with no stimuli by CCK-8 and in the 18:3-LPA control group (vehicle), saline was administered through the femoral vein. One hour after the final administration (Admn.2), the volume of pancreatic juice collected was measured.

[5] = test system: pancreatic juice secretion; test: Effect of LPA receptor or EDG-2 antagonist on pancreatic juice secretion in rats (Example 7); assay type: in vivo, rat
Procedure: Using Compound 1 having the effect as a EDG-2 antagonist was confirmed in Example 5, the effect of LPA on the pancreatic juice secretion was examined.
In rats, (1) 18:3-LPA and (2) saline as a control (vehicle) for 18:3-LPA were respectively infused through the femoral vein, and (3) Compound 1 and (4) 5% bovine serum albumin/10% DMSO/saline as a control (vehicle) for Compound 1 were respectively infused through the cervical vein, at a rate of 0.5 ml/h for 1 hour.
On the other hand, saline was previously infused through the femoral vein and cervical vein (0.5 ml/h), and after one hour the pancreatic juice was collected in order to ascertain that there was no difference in the initial volumes of the secreted pancreatic juice in rats in each group.

[6] = test system: amylase secretion; test: Determination of the amount of amylase secreted (Example 2); assay type: in vivo, rat
Procedure: The pancreatic juice collected in Example 1 was diluted with Dulbecco's phosphate-buffered saline(−) (PBS(−)) at an appropriate dilution rate, of which the amylase activity was determined with a reagent of a Diacolor AMY Neorate (Ono Pharmaceutical) kit. To 10 μl of an amylase standard solution (Worthington Biochemical, diluted to 100 U/L to 6,400 U/L with PBS(−)) or the collected diluted pancreatic juice was added 50 μl of an enzyme reagent of the kit, and the mixture was incubated at 37° C. for 3 minutes. Then, after addition of 50 μl of a substrate reagent of the kit, the variation (Vmax) of optical density (OD) at 400 nm was monitored at 37° C. for 3 minutes (SPECTRAMAX 250). The amylase activity was calculated from an amylase standard curve to evaluate the effect of the subject substance by means of the secreted amount of the enzyme (U/h) obtained by the enzyme activity (concentration) (U/L) multiplied by the amount of pancreatic juice collected (L/h).

[7] = 10 mg/kg/h, 1 ml/h, i.v. infusion

For CC/C=C\C/C=C\C/C=C\CCCCCCCC(=O)OCC(O)COP(=O)(O)O (stereo not drawn) [18:3-LPA, 1-linolenoyl-lyzophosphatidic acid], the “dose at which the effect on pancreatic juice secretion reached approximately the maximum” value ([1]; i.v. infusion 1 ml/h) was ~3 mg/kg/h, the pancreatic juice secretion ([1]; i.v. infusion 1 ml/h for 1 hr, 18:3-LPA 1, 3, 10 mg/kg/h, FIG. 1) was “decreased” and the pancreatic juice secretion ([1]; i.v. infusion 1 ml/h for 1 hr, 18:3-LPA 1, 3, 10 mg/kg/h, FIG. 1, listed as LPA) was “Dose-dependent inhibitory effect”. The “amount of lipase secreted” value ([2]; 3 and 10 mg/kg/h i.v. infusion, FIG. 3) was “reduced significantly”, the pancreatic juice secretion [3] was “inhibited” and the “pancreatic juice secretion increased by CCK-8” value ([4]; 3 mg/kg/h intravenous infusion, FIG. 4) was “reduced the increased pancreatic juice secretion approximately to the control level”. The “basal secretion volume of pancreatic juice” value ([5]; 18:3-LPA 3 mg/kg/h i.v. infusion) was “inhibition of the basal secretion volume was observed” and the “amount of amylase secreted” value ([6]; rats, 1, 3 or 10 mg/kg/h i.v. infusion, FIG. 2) was “reduced”.

With CC/C=C\C/C=C\C/C=C\CCCCCCCC(=O)OCC(O)COP(=O)([O-])OCC[N+](C)(C)C (stereo not drawn) [18:3-LPC, 1-linolenoyl lisophosphatidylcholine, reference compound] the pancreatic juice secretion [1, 7] was “no inhibitory effect”, the lipase secretion [2, 7] was “no inhibitory effect” and the “pancreatic juice secretion induced by CCK-8” value ([4]; 10 mg/kg/h, 1 ml/h, intravenous infusion) was “no inhibitory effect”. For the same molecule, the amylase secretion ([6]; rats, 10 mg/kg/h, 1 ml/h, i.v. infusion) was “no inhibitory effect”.

For COC(=O)CCSCc1ccc(-c2onc(C)c2NC(=O)OC(C)c2ccccc2Cl)cc1 (stereo not drawn) [Compound 1, methyl 3-({4-[4-({[1-(2-chlorophenyl)ethoxy]carbonyl}amino)-3-methyl-5-isoxazolyl]benzyl}sulfanyl)propanoate], the “recovery of pancreatic juice secretion from the inhibition by 18:3-LPA” value ([5]; Compound 1 administered together with 18:3-LPA (3 mg/kg/h), FIG. 5) was “significantly recovered” and the “basal (at resting) secretion volume of pancreatic juice vs control group (vehicle)” value ([5]; Compound 1 alone, 10 mg/kg/h i.v. infusion, after one hour, FIG. 5) was “no difference”.

“CCK-8: cholecystokinin, CCK-8 (Sigma No. C-2175), used to stimulate pancreatic juice secretion (DY(SO3H)MGWMDF-NH2; UniProt P06307 96-103, looked up)” was tested, and the “secretion of pancreatic juice (stimulation)” value ([4]; 1 ml/h through the cervical vein) was “markedly increased”.
